Measured values reported in patent US8877748B2, “Heterocyclic fused anthraquinone derivatives, manufacturing method and pharmaceutical composition using thereof” (National Defense Medical Center, priority 2012, dated 2014).

Key:
[1] = test system: HOP-92; test: NCI one-dose screening, non-small cell lung cancer HOP-92; type: cell-based, human; details: 10 μM
[2] = test system: LOX IMVI; test: NCI one-dose screening, melanoma LOX IMVI; type: cell-based, human; details: 10 μM
[3] = test system: SF-268; test: NCI one-dose screening, CNS cancer SF-268; type: cell-based, human; details: 10 μM
[4] = test system: SNB-75; test: NCI one-dose screening, CNS cancer SNB-75; type: cell-based, human; details: 10 μM
[5] = test system: NCI-H522; test: NCI one-dose screening, non-small cell lung cancer NCI-H522; type: cell-based, human; details: 10 μM
[6] = test system: HT29; test: NCI one-dose screening, colon cancer HT29; type: cell-based, human; details: 10 μM
[7] = test system: BT-549; test: NCI one-dose screening, breast cancer BT-549; type: cell-based, human; details: 10 μM
[8] = test system: PC-3; test: NCI one-dose screening, prostate cancer PC-3; type: cell-based, human; details: 10 μM
[9] = test system: HCC-2998; test: NCI one-dose screening, colon cancer HCC-2998; type: cell-based, human; details: 10 μM
[10] = test system: SN12C; test: NCI one-dose screening, renal cancer SN12C; type: cell-based, human; details: 10 μM
[11] = test system: SNB-19; test: NCI one-dose screening, CNS cancer SNB-19; type: cell-based, human; details: 10 μM
[12] = test system: HS 578-T; test: NCI one-dose screening, breast cancer HS 578-T; type: cell-based, human; details: 10 μM; Breast cancer
[13] = test system: MALME-3M; test: NCI one-dose screening, melanoma MALME-3M; type: cell-based, human; details: 10 μM
[14] = test system: NCl/ADR-RES; test: NCI one-dose screening, breast cancer NCl/ADR-RES; type: cell-based, human; details: 10 μM; listed under Ovarian cancer
[15] = test system: human tumor cell lines; test: NCI one-dose screening, Mean / Delta / Range of growth percent over all tested cell lines; type: cell-based; details: 10 μM
[16] = test system: UACC-257; test: NCI one-dose screening, melanoma UACC-257; type: cell-based, human; details: 10 μM
[17] = test system: SK-MEL-2; test: NCI one-dose screening, melanoma SK-MEL-2; type: cell-based, human; details: 10 μM
[18] = test system: SR; test: NCI one-dose screening, leukemia SR; type: cell-based, human; details: 10 μM
[19] = test system: HL-60, TB; test: NCI one-dose screening, leukemia HL-60, TB; type: cell-based, human; details: 10 μM
[20] = test system: TK-10; test: NCI one-dose screening, renal cancer TK-10; type: cell-based, human; details: 10 μM
[21] = test system: K562cell line; test: NCI one-dose screening, leukemia K562; type: cell-based, human; details: 10 μM
[22] = test system: DU145; test: NCI one-dose screening, prostate cancer DU145; type: cell-based, human; details: 10 μM
[23] = test system: CAKI-1; test: NCI one-dose screening, renal cancer CAKI-1; type: cell-based, human; details: 10 μM
[24] = test system: MDA, -MB-435; test: NCI one-dose screening, breast cancer MDA, -MB-435; type: cell-based, human; details: 10 μM; listed under Melanoma
[25] = test system: HCT-116; test: NCI one-dose screening, colon cancer HCT-116; type: cell-based, human; details: 10 μM
[26] = test system: HCT-15; test: NCI one-dose screening, colon cancer HCT-15; type: cell-based, human; details: 10 μM
[27] = test system: MDA-MB-468; test: NCI one-dose screening, breast cancer MDA-MB-468; type: cell-based, human; details: 10 μM
[28] = test system: SK-OV-3; test: NCI one-dose screening, ovarian cancer SK-OV-3; type: cell-based, human; details: 10 μM
[29] = test system: UACC-62; test: NCI one-dose screening, melanoma UACC-62; type: cell-based, human; details: 10 μM
[30] = test system: RXF, 393; test: NCI one-dose screening, renal cancer RXF, 393; type: cell-based, human; details: 10 μM
[31] = test system: NCI-H23; test: NCI one-dose screening, non-small cell lung cancer NCI-H23; type: cell-based, human; details: 10 μM
[32] = test system: NCI-H460; test: NCI one-dose screening, non-small cell lung cancer NCI-H460; type: cell-based, human; details: 10 μM
[33] = test system: OVCAR-8; test: NCI one-dose screening, ovarian cancer OVCAR-8; type: cell-based, human; details: 10 μM
[34] = test system: T-47D; test: NCI one-dose screening, breast cancer T-47D; type: cell-based, human; details: 10 μM
[35] = test system: PC-3 prostate cancer cell line; test: SRB assay cell viability, PC-3 prostate cancer cell line; type: cell-based, human; details: Homo sapiens, PC-3 prostate cancer cell line, Table II prints no unit, μM printed, read-out: SRB assay: 50% inhibition of cancer cell proliferation of sample concentration (IC50) of PC-3 prostate cancer cell line
[36] = test system: HOP-62; test: NCI one-dose screening, non-small cell lung cancer HOP-62; type: cell-based, human; details: 10 μM
[37] = test system: SK-MEL-5; test: NCI one-dose screening, melanoma SK-MEL-5; type: cell-based, human; details: 10 μM
[38] = test system: 786-O; test: NCI one-dose screening, renal cancer 786-O; type: cell-based, human; details: 10 μM
[39] = test system: UO-31; test: NCI one-dose screening, renal cancer UO-31; type: cell-based, human; details: 10 μM
[40] = test system: KM12; test: NCI one-dose screening, colon cancer KM12; type: cell-based, human; details: 10 μM
[41] = test system: NCI-H226; test: NCI one-dose screening, non-small cell lung cancer NCI-H226; type: cell-based, human; details: 10 μM
[42] = test system: SF-295; test: NCI one-dose screening, CNS cancer SF-295; type: cell-based, human; details: 10 μM
[43] = test system: MDA-MB-231/ATCC; test: NCI one-dose screening, breast cancer MDA-MB-231/ATCC; type: cell-based, human; details: 10 μM
[44] = test system: OVCAR-5; test: NCI one-dose screening, ovarian cancer OVCAR-5; type: cell-based, human; details: 10 μM
[45] = test system: A549/ATCC; test: NCI one-dose screening, non-small cell lung cancer A549/ATCC; type: cell-based, human; details: 10 μM
[46] = test system: PRMI-8226 cell line; test: NCI one-dose screening, leukemia PRMI-8226; type: cell-based, human; details: 10 μM
[47] = test system: SK-MEL-28; test: NCI one-dose screening, melanoma SK-MEL-28; type: cell-based, human; details: 10 μM
[48] = test system: SF-539; test: NCI one-dose screening, CNS cancer SF-539; type: cell-based, human; details: 10 μM
[49] = test system: M14; test: NCI one-dose screening, melanoma M14; type: cell-based, human; details: 10 μM
[50] = test system: ACHN; test: NCI one-dose screening, renal cancer ACHN; type: cell-based, human; details: 10 μM
[51] = test system: U251; test: NCI one-dose screening, CNS cancer U251; type: cell-based, human; details: 10 μM
[52] = test system: OVCAR-3; test: NCI one-dose screening, ovarian cancer OVCAR-3; type: cell-based, human; details: 10 μM
[53] = test system: EKVX; test: NCI one-dose screening, non-small cell lung cancer EKVX; type: cell-based, human; details: 10 μM
[54] = NCI one-dose screening, renal cancer A489; type: cell-based, human; details: 10 μM
[55] = test system: MCF7; test: NCI one-dose screening, breast cancer MCF7; type: cell-based, human; details: 10 μM
[56] = test system: COLO 205; test: NCI one-dose screening, colon cancer COLO 205; type: cell-based, human; details: 10 μM
[57] = test system: MOLT-4; test: NCI one-dose screening, leukemia MOLT-4; type: cell-based, human; details: 10 μM
[58] = test system: IGROV1; test: NCI one-dose screening, ovarian cancer IGROV1; type: cell-based, human; details: 10 μM

Structure (SMILES): O=C1c2ccccc2C(=O)c2c1cc(Sc1ccc(F)cc1F)c1nsnc21 [C39, 4-(2,4-difluorophenylthio)anthra[2,1-c] [1,2,5]thiadiazol-6,11-dione]
- Growth Percent HOP-92 [1]: −18.39%
- Growth Percent LOX IMVI [2]: −42.03%
- Growth Percent SF-268 [3]: 8.47%
- Growth Percent SNB-75 [4]: 42.86%
- Growth Percent NCI-H522 [5]: 61.06%
- Growth Percent HT29 [6]: 102.45%
- Growth Percent BT-549 [7]: 66.40- Percent
- Growth Percent PC-3 [8]: −9.72%
- Growth Percent HCC-2998 [9]: 107.02%
- Growth Percent SN12C [10]: 9.12%
- Growth Percent SNB-19 [11]: 87.35%
- Growth Percent HS 578T [12]: 50.08%
- Growth Percent MALME-3M [13]: 39.46%
- Growth Percent NCI/ADR-RES [14]: −26.24%
- Growth Percent Delta ([15]; delta over all cell lines): 119.50%
- Growth Percent Mean ([15]; mean over all cell lines): 32.54%
- Growth Percent Range ([15]; range over all cell lines): 198.89%
- Growth Percent UACC-257 [16]: 43.93%
- Growth Percent SK-MEL-2 [17]: 51.79%
- Growth Percent SR [18]: 0.20%
- Growth Percent HL-60(TB) [19]: −37.71%
- Growth Percent TK-10 [20]: 111.93%
- Growth Percent K562 [21]: −21.06%
- Growth Percent DU145 [22]: 41.32%
- Growth Percent CAKI-1 [23]: 24.02%
- Growth Percent MDA-MB-435 [24]: −85.27%
- Growth Percent HCT-116 [25]: −63.06%
- Growth Percent HCT-15 [26]: 45.84%
- Growth Percent MDA-MB-468 [27]: −86.96%
- Growth Percent SK-OV-3 [28]: 92.58%
- Growth Percent UACC-62 [29]: 53.27%
- Growth Percent RXF 393 [30]: 36.69%
- Growth Percent NCI-H23 [31]: 9.53%
- Growth Percent NCI-H460 [32]: 83.60%
- Growth Percent OVCAR-8 [33]: 0.32%
- Growth Percent T-47D [34]: −28.61%
- IC50 [35]: 14.8 µM
- Growth Percent HOP-62 [36]: 58.46%
- Growth Percent SK-MEL-5 [37]: 48.53%
- Growth Percent 786-0 [38]: 3.74%
- Growth Percent UO-31 [39]: 70.30%
- Growth Percent KM12 [40]: 51.79%
- Growth Percent NCI-H226 [41]: 88.85%
- Growth Percent SF-295 [42]: 68.77%
- Growth Percent MDA-MB-231/ATCC [43]: −9.73%
- Growth Percent OVCAR-5 [44]: 110.21%
- Growth Percent A549/ATCC [45]: 111.54%
- Growth Percent RPMI-8226 [46]: 6.29%
- Growth Percent SK-MEL-28 [47]: 79.45%
- Growth Percent SF-539 [48]: 58.79%
- Growth Percent M14 [49]: 53.77%
- Growth Percent ACHN [50]: 34.93%
- Growth Percent U251 [51]: 34.47%
- Growth Percent OVCAR-3 [52]: −52.32%
- Growth Percent EKVX [53]: 98.12%
- Growth Percent A498 [54]: 50.80%
- Growth Percent MCF7 [55]: 6.58%
- Growth Percent COLO 205 [56]: 104.04%
- Growth Percent MOLT-4 [57]: −41.57%
- Growth Percent IGROV1 [58]: 975%
